Reference: PubChem BioAssay (NCI)
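48-hour exposure; five concentrations; linearly interpolated endpoints. GI50 is the concentration that inhibits growth by half. TGI denotes the concentration required for complete inhibition of growth.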

What was measured:
Experiment in all cases: NCI-60 cell line screen, 48 h
786-0 renal = test system: 786-0 renal
A498 renal = test system: A498 renal
A549 NSCLC = test system: A549 NSCLC
ACHN renal = test system: ACHN renal
BT-549 breast = test system: BT-549 breast
CAKI-1 renal = test system: CAKI-1 renal
DU-145 prostate = test system: DU-145 prostate
EKVX NSCLC = test system: EKVX NSCLC
HCT-15 colon = test system: HCT-15 colon
HL-60(TB) leukemia = test system: HL-60(TB) leukemia
HOP-92 NSCLC = test system: HOP-92 NSCLC
HS 578T breast = test system: HS 578T breast
IGROV1 ovarian = test system: IGROV1 ovarian
M14 melanoma = test system: M14 melanoma
MALME-3M melanoma = test system: MALME-3M melanoma
MDA-MB-435 = test system: MDA-MB-435
NCI-H226 lung = test system: NCI-H226 lung
NCI/ADR-RES ovarian = test system: NCI/ADR-RES ovarian
OVCAR-3 ovarian = test system: OVCAR-3 ovarian
OVCAR-5 ovarian = test system: OVCAR-5 ovarian
RPMI-8226 leukemia = test system: RPMI-8226 leukemia
RXF 393 renal = test system: RXF 393 renal
SF-295 CNS = test system: SF-295 CNS
SK-MEL-2 melanoma = test system: SK-MEL-2 melanoma
SK-MEL-5 melanoma = test system: SK-MEL-5 melanoma
SK-OV-3 ovarian = test system: SK-OV-3 ovarian
SN12C renal = test system: SN12C renal
SNB-75 CNS = test system: SNB-75 CNS
SW-620 colon = test system: SW-620 colon
TK-10 renal = test system: TK-10 renal
UACC-257 melanoma = test system: UACC-257 melanoma
UACC-62 melanoma = test system: UACC-62 melanoma
UO-31 renal = test system: UO-31 renal
CCRF-CEM leukemia = test system: CCRF-CEM leukemia
COLO 205 colon = test system: COLO 205 colon
HCC-2998 colon = test system: HCC-2998 colon
HCT-116 colon = test system: HCT-116 colon
HT29 colon = test system: HT29 colon
K-562 leukemia = test system: K-562 leukemia
KM12 colon = test system: KM12 colon
LOX IMVI melanoma = test system: LOX IMVI melanoma
MDA-MB-231 breast = test system: MDA-MB-231 breast
MOLT-4 leukemia = test system: MOLT-4 leukemia
NCI-H23 lung = test system: NCI-H23 lung
NCI-H460 lung = test system: NCI-H460 lung
OVCAR-4 ovarian = test system: OVCAR-4 ovarian
OVCAR-8 ovarian = test system: OVCAR-8 ovarian
PC-3 prostate = test system: PC-3 prostate
SF-268 CNS = test system: SF-268 CNS
SK-MEL-28 melanoma = test system: SK-MEL-28 melanoma
SNB-19 CNS = test system: SNB-19 CNS
SR leukemia = test system: SR leukemia
U251 CNS = test system: U251 CNS

For `Cc1cc(Nc2ccc(NC(=O)c3ccc(Nc4ccnc5ccccc45)cc3)cc2)nc(N)n1`, the GI50 (786-0 renal) was 3.06 µM, the TGI (786-0 renal) was greater than 100 µM and the GI50 (A498 renal) was 5.13 µM. For the same compound, the TGI (A498 renal) was greater than 100 µM, the GI50 (A549 NSCLC) was 14.6 µM and the TGI (A549 NSCLC) was greater than 100 µM. It also gave a GI50 (ACHN renal) of 21.6 µM, a TGI (ACHN renal) greater than 100 µM and a GI50 (BT-549 breast) of 2250 nM. For the same compound, the TGI (BT-549 breast) was 5.74 µM, the GI50 (CAKI-1 renal) was greater than 100 µM and the TGI (CAKI-1 renal) was greater than 100 µM. The GI50 (DU-145 prostate) was 2030 nM, the TGI (DU-145 prostate) was 5.16 µM and the GI50 (EKVX NSCLC) was 2950 nM. It also gave a TGI (EKVX NSCLC) greater than 100 µM, a GI50 (HCT-15 colon) of 6.16 µM and a TGI (HCT-15 colon) greater than 100 µM. The GI50 (HL-60(TB) leukemia) was 7.31 µM, the TGI (HL-60(TB) leukemia) was greater than 100 µM and the GI50 (HOP-92 NSCLC) was 2130 nM. It also gave a TGI (HOP-92 NSCLC) of 6.59 µM, a GI50 (HS 578T breast) of 5.79 µM and a TGI (HS 578T breast) greater than 100 µM. It also gave a GI50 (IGROV1 ovarian) of 15 µM, a TGI (IGROV1 ovarian) of 63.5 µM and a GI50 (M14 melanoma) of 7.62 µM. The TGI (M14 melanoma) was greater than 100 µM, the GI50 (MALME-3M melanoma) was 2000 nM and the TGI (MALME-3M melanoma) was 4.65 µM. It also gave a GI50 (MDA-MB-435) of 2930 nM, a TGI (MDA-MB-435) greater than 100 µM and a GI50 (NCI-H226 lung) of 2420 nM. For the same compound, the TGI (NCI-H226 lung) was 5 µM, the GI50 (NCI/ADR-RES ovarian) was greater than 100 µM and the TGI (NCI/ADR-RES ovarian) was greater than 100 µM. The GI50 (OVCAR-3 ovarian) was 1430 nM, the TGI (OVCAR-3 ovarian) was 4.26 µM and the GI50 (OVCAR-5 ovarian) was 3.4 µM. For the same compound, the TGI (OVCAR-5 ovarian) was 37.5 µM, the GI50 (RPMI-8226 leukemia) was greater than 100 µM and the TGI (RPMI-8226 leukemia) was greater than 100 µM. It also gave a GI50 (RXF 393 renal) of 2760 nM, a TGI (RXF 393 renal) of 9.82 µM and a GI50 (SF-295 CNS) of 4.81 µM. It also gave a TGI (SF-295 CNS) of 39.6 µM, a GI50 (SK-MEL-2 melanoma) of 5.56 µM and a TGI (SK-MEL-2 melanoma) of 94.7 µM. For the same compound, the GI50 (SK-MEL-5 melanoma) was 5.23 µM, the TGI (SK-MEL-5 melanoma) was 49.9 µM and the GI50 (SK-OV-3 ovarian) was 7.15 µM. The TGI (SK-OV-3 ovarian) was 54.8 µM, the GI50 (SN12C renal) was 2130 nM and the TGI (SN12C renal) was 5.02 µM. It also gave a GI50 (SNB-75 CNS) of 12.2 µM, a TGI (SNB-75 CNS) of 43 µM and a GI50 (SW-620 colon) of 1370 nM. For the same compound, the TGI (SW-620 colon) was greater than 100 µM, the GI50 (TK-10 renal) was 19.8 µM and the TGI (TK-10 renal) was greater than 100 µM. It also gave a GI50 (UACC-257 melanoma) of 21.8 µM, a TGI (UACC-257 melanoma) of 87.7 µM and a GI50 (UACC-62 melanoma) of 2330 nM. It also gave a TGI (UACC-62 melanoma) of 5.84 µM, a GI50 (UO-31 renal) of 50.9 µM and a TGI (UO-31 renal) greater than 100 µM.

Work on `CO[C@@]12C[C@@H](C)C3=CCC(C)=C3CC1=C(C)C(=O)O2` yielded a TGI (786-0 renal) greater than 100 µM, a TGI (A498 renal) greater than 100 µM and a TGI (ACHN renal) greater than 100 µM. It also gave a TGI (BT-549 breast) greater than 100 µM, a TGI (CAKI-1 renal) greater than 100 µM and a TGI (CCRF-CEM leukemia) greater than 100 µM. For the same compound, the TGI (COLO 205 colon) was greater than 100 µM, the TGI (EKVX NSCLC) was greater than 100 µM and the TGI (HCC-2998 colon) was greater than 100 µM. The TGI (HCT-116 colon) was greater than 100 µM, the TGI (HCT-15 colon) was greater than 100 µM and the TGI (HL-60(TB) leukemia) was greater than 100 µM. The TGI (HOP-92 NSCLC) was greater than 100 µM, the TGI (HS 578T breast) was greater than 100 µM and the TGI (HT29 colon) was greater than 100 µM. It also gave a TGI (IGROV1 ovarian) greater than 100 µM, a TGI (K-562 leukemia) greater than 100 µM and a TGI (KM12 colon) greater than 100 µM. The TGI (LOX IMVI melanoma) was greater than 100 µM, the TGI (M14 melanoma) was greater than 100 µM and the TGI (MALME-3M melanoma) was greater than 100 µM. For the same compound, the TGI (MDA-MB-231 breast) was greater than 100 µM, the TGI (MDA-MB-435) was greater than 100 µM and the TGI (MOLT-4 leukemia) was greater than 100 µM. For the same compound, the TGI (NCI-H226 lung) was greater than 100 µM, the TGI (NCI-H23 lung) was greater than 100 µM and the TGI (NCI-H460 lung) was greater than 100 µM. The TGI (NCI/ADR-RES ovarian) was greater than 100 µM, the TGI (OVCAR-3 ovarian) was greater than 100 µM and the TGI (OVCAR-4 ovarian) was greater than 100 µM. It also gave a TGI (OVCAR-5 ovarian) greater than 100 µM, a TGI (OVCAR-8 ovarian) greater than 100 µM and a TGI (PC-3 prostate) greater than 100 µM. The TGI (RPMI-8226 leukemia) was greater than 100 µM, the TGI (SF-268 CNS) was greater than 100 µM and the TGI (SF-295 CNS) was greater than 100 µM. It also gave a TGI (SK-MEL-2 melanoma) greater than 100 µM, a TGI (SK-MEL-28 melanoma) greater than 100 µM and a TGI (SK-MEL-5 melanoma) greater than 100 µM. For the same compound, the TGI (SK-OV-3 ovarian) was greater than 100 µM, the TGI (SNB-19 CNS) was greater than 100 µM and the TGI (SNB-75 CNS) was greater than 100 µM. It also gave a TGI (SR leukemia) greater than 100 µM, a TGI (SW-620 colon) greater than 100 µM and a TGI (TK-10 renal) greater than 100 µM. For the same compound, the TGI (U251 CNS) was greater than 100 µM, the TGI (UACC-257 melanoma) was greater than 100 µM and the TGI (UACC-62 melanoma) was greater than 100 µM. It also gave a TGI (UO-31 renal) greater than 100 µM.
